Test results from patent US5214047A, “Tetracyclic quinazoline derivatives, effective as antiarrythmic agents” (priority 1987, dated 1993).
Counter-ions that a name gives are not always drawn.

Test system: QT interval
Assay: QT interval prolongation (ECG, class III action) in anesthetized guinea pigs
Assay type: in vivo, Pirbright white guinea pigs
Conditions: guinea pigs, intravenous
Experimental: The action of the novel substances has been tested as follows:
The experimental animals used were male and female Pirbright white guinea pigs weighing 300-500 g. 1.5 g/kg urethane i.p. were used for anesthesia. The substances were administered intravenously. The extremity lead II was recorded to measure the ECG conduction times and the heart rate. The measured variables were the QT and PQ intervals and the heart rate. 4-6 animals were used for each dose. The criterion for a class III action was an increase in the QT interval compared with the values before administration of the substance. A PQ increase and a large decrease in the heart rate were used as exclusion criteria. The ED20% is calculated from the linear relation between log dose (mg/kg) of the substance and the relative prolongation of the QT interval (Δ%).

**Q.** For `COc1ccc(C23CCCN2c2ccccc2C2=NCCCN23)cc1` (centres unmarked) [Example 35, 2,3,5,6,7,8-Hexahydro-6-(4-methoxyphenyl)-2H-pyrimido[1,2-c]pyrrolo[1,2-a]quinazoline hydrochloride], which ED (20%) (Cavia porcellus, urethane anesthesia, dose for 20% QT prolongation calculated from log dose (mg/kg) vs relative QT prolongation, read-out: Prolongation of the QT interval ED20%) is on record?
**A.** 0.63 mg/kg

**Q.** What about the “Potency relative to that of d-sotalol = 1.0” value (QT prolongation, ED20%, d-sotalol = 1.0) of the same molecule?
**A.** 5.7
